One assay relates to firefly luciferase. In words: Loss of luciferase activity after siRNA transfection, Promega Dual-Luciferase Reporter Assay (Example 2, FIG. 3). The format is cell-based. The note with it: MDA231 stably expressing luciferase, control non-transfected cell line. On the procedure: (§1) For each transfection mixture (which are examples of compositions in accordance with the present invention), a lipitoid or lipitoid/cholesteroid combination delivery vehicle was prepared to a working concentration of 0.5 mM in water and mixed to yield a uniform solution. The siRNA was prepared to a working concentration of 20 μM in buffer supplied with the siRNAs. In this example, the siRNAs were for Akt1 mRNA and had the sequence […] (SEQ ID No: 1) with two 2′ O-methyl UU (RNA) nucleotide 3′-overhangs and phosphodiester links throughout (available from Integrated DNA Technologies). The siRNA was diluted in OptiMEM™ (Gibco/BRL), in a microfuge tube, to 1 μM, or approximately 15 μg oligo/ml of OptiMEM™. In a separate microfuge tube, vehicle, typically in the amount of about 3.75 nmol vehicle/100 pmol siRNA, was diluted into the same volume of OptiMEM™ used to dilute the siRNA. […] Note that the exact ratio of siRNA to vehicle must be determined empirically for each cell type, but generally is about this amount. The diluted siRNA was immediately added to the diluted vehicle and mixed by pipetting up and down. The mixture was allowed to incubate at room temperature for 10 minutes.
Cells were plated on tissue culture dishes one day in advance of transfection, in growth media with serum, to yield a density at transfection of 60-90%. The siRNA/vehicle mixture was added to the cells immediately after mixing and incubation, to a final concentration of 50-100 nM siRNA in half the normal growth medium volume. Cells were incubated with the transfection mixture at 37° C., 5% CO2 for 4-24 hours. […]
Transfection mixtures were prepared using siRNA against firefly luciferase (CGUACGCGGAAUACUUCGA (SEQ ID No: 2); from Elbashir et al., Nature, 411, 494 (2001)) and several different delivery vehicles in accordance with the present invention as described herein (L1, L2, L1/C1, L4 1L1/3C1) substantially as described in Example 1. Luciferase activity was quantified with the Promega Dual-Luciferase Reporter Assay System according to package directions. […]
On the technique in general: Reporter assays use an easily measured gene product as a stand-in for the process of interest.

The next assay concerns Akt1 mRNA. In words: siRNA inhibition of Akt1 mRNA in MDA435 breast cancer cells (Example 1, FIG. 2). The class given is cell-based. The note with it: presence or absence of serum, Akt1 message normalized to average of HPRT and GUSB. As for the experimental part:
as §1
Cells were plated on tissue culture dishes one day in advance of transfection, in growth media with serum, to yield a density at transfection of 60-90%. […]

As for NddNol(NaeNmpeNmpe)3 [Lipitoid L4], the “luciferase activity after transfection of siRNA against luciferase” value (from here on “luciferase activity after transfection”) in the assay with firefly luciferase is “substantially reduced”.

Take DMPE(NaeNiaNia)3 [Lipitoid L2]: in the assay on firefly luciferase, the “luciferase activity after transfection” value is “substantially reduced”. Also, the “Akt1 expression after transfection of siRNA directed against Akt1 mRNA” value with Akt1 mRNA is on record as “loss of Akt1 expression”.

For the substance DMPE(NaeNmpeNmpe)3 [Lipitoid L1], in the assay on firefly luciferase, the “luciferase activity after transfection” value is given as “substantially reduced”.

For NtdNhd(NaeNmpeNmpe)3 [Lipitoid L3], the “Akt1 expression after transfection of siRNA directed against Akt1 mRNA” value with Akt1 mRNA was “loss of Akt1 expression”.

These data come from patent US20150031743A1, “CELL TRANSFECTING FORMULATIONS OF SMALL INTERFERING RNA, RELATED COMPOSITIONS AND METHODS OF MAKING AND USE” (NOVARTIS VACCINES AND DIAGNOSTICS, INC., priority 2003, published 2015).
